# From PMC4564189, “A Genetic Selection for dinB Mutants Reveals an Interaction between DNA Polymerase IV and the Replicative Polymerase That Is Required for Translesion Synthesis” (PLoS Genetics, 2015)
# T1: Pol IV (E. coli DNA polymerase IV, DinB) (Escherichia coli, UniProt Q47155)
# T1 construct: full-length, untagged as far as told, pET11a plasmid pRM112 (T7 promoter) and mutant derivatives, purified from E. coli; 351 residues
# T1 sequence (Q47155 1-351): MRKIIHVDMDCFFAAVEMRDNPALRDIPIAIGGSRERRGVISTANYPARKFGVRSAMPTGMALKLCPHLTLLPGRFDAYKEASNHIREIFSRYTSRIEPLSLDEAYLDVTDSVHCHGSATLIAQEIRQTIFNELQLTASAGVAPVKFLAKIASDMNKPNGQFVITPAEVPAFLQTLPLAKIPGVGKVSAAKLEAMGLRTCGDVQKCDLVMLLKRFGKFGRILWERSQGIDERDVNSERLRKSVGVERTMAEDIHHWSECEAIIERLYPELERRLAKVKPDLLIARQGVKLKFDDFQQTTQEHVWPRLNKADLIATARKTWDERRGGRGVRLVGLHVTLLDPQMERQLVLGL
# B1: Pol IV catalytic domain (Pol IV^CD; residues 1–230) (domain or fragment)
# chain: MRKIIHVDMDCFFAAVEMRDNPALRDIPIAIGGSRERRGVISTANYPARKFGVRSAMPTGMALKLCPHLTLLPGRFDAYKEASNHIREIFSRYTSRIEPLSLDEAYLDVTDSVHCHGSATLIAQEIRQTIFNELQLTASAGVAPVKFLAKIASDMNKPNGQFVITPAEVPAFLQTLPLAKIPGVGKVSAAKLEAMGLRTCGDVQKCDLVMLLKRFGKFGRILWERSQGID
# What was measured:
# [1] = target: T2, Pol IV (E. coli DNA polymerase IV, DinB) (Escherichia coli, UniProt Q47155, T120P); assay: pre-steady-state single-nucleotide primer extension, […] gel assay; assay type: biochemical; settings: apparent Kd for dNTP, kpol given as kcat, 200 nM DNA, 400 nM polymerase, 10 mM MgCl2, pH 7.5, 25°C
# T2 construct: full-length, untagged as far as told, pET11a plasmid pRM112 (T7 promoter) and mutant derivatives, purified from E. coli; 351 residues
# T2 sequence (Q47155 whole entry T120P): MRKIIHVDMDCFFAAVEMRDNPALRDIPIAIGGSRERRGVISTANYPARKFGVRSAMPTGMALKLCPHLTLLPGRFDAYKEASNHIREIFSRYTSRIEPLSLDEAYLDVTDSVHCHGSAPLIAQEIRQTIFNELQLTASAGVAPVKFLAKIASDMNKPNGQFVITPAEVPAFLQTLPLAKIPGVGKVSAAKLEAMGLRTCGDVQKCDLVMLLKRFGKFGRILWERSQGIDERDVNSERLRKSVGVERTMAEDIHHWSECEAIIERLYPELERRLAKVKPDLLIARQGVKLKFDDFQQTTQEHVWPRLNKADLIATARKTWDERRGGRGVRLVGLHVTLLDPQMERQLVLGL
# [2] = target: T1, Pol IV (E. coli DNA polymerase IV, DinB); assay: as above; assay type: biochemical; settings: apparent Kd for dNTP, kpol given as kcat, 200 nM DNA, 400 nM polymerase, 10 mM MgCl2, pH 7.5, 25°C
# [3] = target: Pol III core complex (Pol IIIαεθ) (E. coli) (UniProt P10443)
# [4] = undamaged template 13/20G (opposite dG)
# [5] = undamaged template 13/20A (opposite dA)
molecule,measurement,setting,value
Nc1ncnc2c1ncn2[C@H]1C[C@H](O)[C@@H](COP(=O)(O)OP(=O)(O)OP(=O)(O)O)O1 [dATP],Kd,"[1]; template 13/20Sp (opposite abasic site), above highest dNTP tested (500 μM range)",460 ± 230 µM
Nc1ccn([C@H]2C[C@H](O)[C@@H](COP(=O)(O)OP(=O)(O)OP(=O)(O)O)O2)c(=O)n1 [dCTP],Kd,[1]; [4],14 ± 3.3 µM
same,Kd,[2]; [4],> 300 µM
Cc1cn([C@H]2C[C@H](O)[C@@H](COP(=O)(O)OP(=O)(O)OP(=O)(O)O)O2)c(=O)[nH]c1=O [dTTP],Kd,[1]; [5],39 ± 9 µM
same,Kd,[2]; [5],207 ± 21 µM
B1,"Pol III processivity in the single-molecule primer extension assay; 900 nM Pol IV^CD (180-fold molar excess) with 5 nM Pol IIIαεθ, β clamp and τ3δδ'ψχ clamp loader (of the processivity without Pol IV^CD)",[3],0.5
